# Several values for one entry are separate records, joined by “and”; a condition that tells them apart may be missing. Identical values can stand only once.
# What was measured:
# [1] = Single-dose pharmacokinetics of VB-201 in plasma (Example 1); assay type: in vivo, human; conditions: for AUC(0-infinity): in ng·h/mL
# Description: Determination of VB-201 concentrations in plasma was performed using an HPLC-MS/MS (high performance liquid chromatography with tandem mass spectrometric detection) assay. Calibration was for a range of from 5 to 500 ng/ml for low doses and from 50 to 5000 ng/ml for high doses. Pharmacokinetic parameters were estimated by using a non-compartmental method, except for the AUC (area under curve), which was determined using a (log-) trapezoidal rule as the area above the previous trough level. […] All subjects were healthy male volunteers. Five cohorts of six subjects each received a single dose of 1, 3, 10, 30 or 50 mg VB-201. 10 subjects received a placebo. The VB-201 was formulated in gelatin capsules enterocoated with Eudragit®. […] Evaluation of relative bioavailability was performed for the primary target parameters AUC (area under the concentration-time curve) and Cmax-(maximum plasma concentration).
# [2] = Repeated daily dose pharmacokinetics, 40 and 80 mg (Example 4); assay type: in vivo, human
# Description: Determination of VB-201 concentrations in plasma was performed using an HPLC-MS/MS (high performance liquid chromatography with tandem mass spectrometric detection) assay. Calibration was for a range of from 5 to 500 ng/ml for low doses and from 50 to 5000 ng/ml for high doses. Pharmacokinetic parameters were estimated by using a non-compartmental method, except for the AUC (area under curve), which was determined using a (log-) trapezoidal rule as the area above the previous trough level. […] The subjects were all healthy volunteers. […] 6 subjects received a placebo. The VB-201 was formulated in non-enterocoated capsules. Blood was collected for pharmacokinetic evaluation on day 1 (40 mg cohort) and on day 14 (40 and 80 mg cohorts).
# [3] = Pharmacokinetics of VB-201 in human subjects, summary over the studies; assay type: in vivo
# Description: Determination of VB-201 concentrations in plasma was performed using an HPLC-MS/MS (high performance liquid chromatography with tandem mass spectrometric detection) assay. Calibration was for a range of from 5 to 500 ng/ml for low doses and from 50 to 5000 ng/ml for high doses. Pharmacokinetic parameters were estimated by using a non-compartmental method, except for the AUC (area under curve), which was determined using a (log-) trapezoidal rule as the area above the previous trough level. All calculations were made using PKWizard (developed by Russell Barbare and Dr. […] was validated against WinNonlin (Pharsight Corp.), which is an FDA-recognized validated program. Pharmacokinetic parameters were calculated by the program according to standard methods used in the art. Calculation of the pharmacokinetic characteristics was based on the actual blood sampling time (in hours), with predose times set to zero. Concentrations below the LLOQ (lower limit of quantification; 4.974 ng/ml) were assumed to be zero.
# [4] = tested on: collagen-induced arthritis; conditions: in vivo animal model; cited from earlier work
smiles,measurement,setting,value
"CCCCCCCCCCCCCCCCOCC(COP(=O)([O-])OCC[N+](C)(C)C)OCCCCC(=O)O (stereo not drawn) [VB-201, 1-hexadecyl-2-(4′-carboxybutyl)-glycerol-3-phosphocholine]",AUC(0-168),[1]; single oral dose 1 mg,501 ± 241 ng·h/mL
same,AUC(0-last non-BLQ),[1]; single oral dose 1 mg,388 ± 168 ng·h/mL
same,AUMC,[1]; single oral dose 1 mg,70178 ± 38633 hours^2*ng/ml
same,Cavg (0-168),[1]; single oral dose 1 mg,2.98 ± 1.43 ng/mL
same,Cl/F,[1]; single oral dose 1 mg,1.44 ± 0.087 L/h
same,Cmax,[1]; single oral dose 1 mg,12.52 ± 2.42 ng/mL
same,Estimated amount circulating,[1]; single oral dose 1 mg,0.26 ± 0.05 mg
same,Estimated minimum bioavailability,[1]; single oral dose 1 mg,26 ± 5%
same,Ke,[1]; single oral dose 1 mg,0.0165 ± 0.0099 h⁻¹
same,MTT,[1]; single oral dose 1 mg,76 ± 27 h
same,T1/2,[1]; single oral dose 1 mg,51 ± 19 h
same,Tmax,[1]; single oral dose 1 mg,8.0 ± 2.1 h
same,AUC(0-infinity),[1]; single oral dose 1 mg,840 ± 309
same,AUC(0-168),[1]; single oral dose 3 mg,2575 ± 1027 ng·h/mL
same,AUC(0-last non-BLQ),[1]; single oral dose 3 mg,2234 ± 1259 ng·h/mL
same,AUMC,[1]; single oral dose 3 mg,214719 ± 133999 hours^2*ng/ml
same,Cavg (0-168),[1]; single oral dose 3 mg,15.33 ± 6.11 ng/mL
same,Cl/F,[1]; single oral dose 3 mg,1.21 ± 0.49 L/h
same,Cmax,[1]; single oral dose 3 mg,53.21 ± 19.43 ng/mL
same,Estimated amount circulating,[1]; single oral dose 3 mg,1.12 ± 0.41 mg
same,Estimated minimum bioavailability,[1]; single oral dose 3 mg,37 ± 14%
same,Ke,[1]; single oral dose 3 mg,0.015 ± 0.0027 h⁻¹
same,MTT,[1]; single oral dose 3 mg,70 ± 16 h
same,T1/2,[1]; single oral dose 3 mg,48 ± 10 h
same,Tmax,[1]; single oral dose 3 mg,8.2 ± 3.9 h
same,AUC(0-infinity),[1]; single oral dose 3 mg,2886 ± 1262
same,AUC(0-168),[1]; single oral dose 10 mg,6138 ± 2259 ng·h/mL
same,AUC(0-last non-BLQ),[1]; single oral dose 10 mg,5634 ± 2705 ng·h/mL
same,AUMC,[1]; single oral dose 10 mg,333614 ± 227308 hours^2*ng/ml
same,Cavg (0-168),[1]; single oral dose 10 mg,36.53 ± 13.44 ng/mL
same,Cl/F,[1]; single oral dose 10 mg,1.83 ± 0.84 L/h
same,Cmax,[1]; single oral dose 10 mg,131.7 ± 20.47 ng/mL
same,Estimated amount circulating,[1]; single oral dose 10 mg,2.77 ± 0.62 mg
same,Estimated minimum bioavailability,[1]; single oral dose 10 mg,28 ± 6%
same,Ke,[1]; single oral dose 10 mg,0.0191 ± 0.0026 h⁻¹
same,MTT,[1]; single oral dose 10 mg,46 ± 20 h
same,T1/2,[1]; single oral dose 10 mg,37 ± 5 h
same,Tmax,[1]; single oral dose 10 mg,7.1 ± 1.9 h
same,AUC(0-infinity),[1]; single oral dose 10 mg,6395 ± 2551
same,AUC(0-168),[1]; single oral dose 30 mg,23243 ± 7277 ng·h/mL
same,AUC(0-last non-BLQ),[1]; single oral dose 30 mg,23243 ± 7277 ng·h/mL
same,AUMC,[1]; single oral dose 30 mg,1463889 ± 520387 hours^2*ng/ml
same,Cavg (0-168),[1]; single oral dose 30 mg,138.4 ± 43.32 ng/mL
same,Cl/F,[1]; single oral dose 30 mg,1.37 ± 0.58 L/h
same,Cmax,[1]; single oral dose 30 mg,495.0 ± 154.2 ng/mL
same,Estimated amount circulating,[1]; single oral dose 30 mg,10.40 ± 3.24 mg
same,Estimated minimum bioavailability,[1]; single oral dose 30 mg,35 ± 11%
same,Ke,[1]; single oral dose 30 mg,0.018 ± 0.0021 h⁻¹
same,MTT,[1]; single oral dose 30 mg,59 ± 4 h
same,T1/2,[1]; single oral dose 30 mg,39 ± 4 h
same,Tmax,[1]; single oral dose 30 mg,6.0 ± 0.9 h
same,AUC(0-infinity),[1]; single oral dose 30 mg,24668 ± 7941
same,AUC(0-168),[1]; single oral dose 50 mg,58816 ± 31297 ng·h/mL
same,AUC(0-last non-BLQ),[1]; single oral dose 50 mg,58816 ± 31297 ng·h/mL
same,AUMC,[1]; single oral dose 50 mg,4719948 ± 3532459 hours^2*ng/ml
same,Cavg (0-168),[1]; single oral dose 50 mg,350.1 ± 186.3 ng/mL
same,Cl/F,[1]; single oral dose 50 mg,0.97 ± 0.46 L/h
same,Cmax,[1]; single oral dose 50 mg,1172 ± 459.4 ng/mL
same,Estimated amount circulating,[1]; single oral dose 50 mg,24.61 ± 9.65 mg
same,Estimated minimum bioavailability,[1]; single oral dose 50 mg,49%
same,Ke,[1]; single oral dose 50 mg,0.015 ± 0.0027 h⁻¹
same,MTT,[1]; single oral dose 50 mg,67 ± 14 h
same,T1/2,[1]; single oral dose 50 mg,47 ± 9 h
same,Tmax,[1]; single oral dose 50 mg,6.5 ± 0.8 h
same,"estimated bioavailability, average of the other 4 subjects",[1]; single oral dose 50 mg,38%
same,"estimated bioavailability, 2 subjects with particularly high values","[1]; single oral dose 50 mg, individual subjects",75% and 71%
same,AUC(0-infinity),[1]; single oral dose 50 mg,65628 ± 37141
same,dose linearity of AUC and Cmax,[1]; single oral doses 1-50 mg,dose-linear and nearly dose-proportional
same,highest estimated bioavailability observed in individuals,[1]; single oral doses 1-50 mg,75%
same,lowest estimated bioavailability observed in individuals,[1]; single oral doses 1-50 mg,18%
same,AUC(0-infinity),"[2]; daily 40 mg, Day 1",31952 ± 9680 ng·h/mL
same,Cl/F (0-24),"[2]; daily 40 mg, Day 1",2.837 ± 1.064 L/h
same,Cl/F(0-infinity),"[2]; daily 40 mg, Day 1",1.346 ± 0.401 L/h
same,Cmax,"[2]; daily 40 mg, Day 1",923.7 ± 287.4 ng/mL
same,Ke,"[2]; daily 40 mg, Day 1",0.0305 ± 0.0124 h⁻¹
same,MTT (0-24),"[2]; daily 40 mg, Day 1",12.0 ± 0.5 h
same,MTT(0-infinity),"[2]; daily 40 mg, Day 1",41.3 ± 17.6 h
same,T1/2,"[2]; daily 40 mg, Day 1",26.8 ± 13.0 h
same,Tmax,"[2]; daily 40 mg, Day 1",8.7 ± 3.8 h
same,AUC(0-24),"[2]; daily 40 mg, Day 14",47393 ± 16792 ng·h/mL
same,AUC(0-infinity),"[2]; daily 40 mg, Day 14",117013 ± 55816 ng·h/mL
same,Cl/F (0-24),"[2]; daily 40 mg, Day 14",0.970 ± 0.436 L/h
same,Cl/F(0-infinity),"[2]; daily 40 mg, Day 14",0.405 ± 0.172 L/h
same,Cmax,"[2]; daily 40 mg, Day 14",2544.6 ± 800.5 ng/mL
same,Ke,"[2]; daily 40 mg, Day 14",0.0270 ± 0.0111 h⁻¹
same,MTT (0-24),"[2]; daily 40 mg, Day 14",11.1 ± 0.4 h
same,MTT(0-infinity),"[2]; daily 40 mg, Day 14",45.2 ± 18.8 h
same,T1/2,"[2]; daily 40 mg, Day 14",30.2 ± 13.6 h
same,Tmax,"[2]; daily 40 mg, Day 14",4.2 ± 2.0 h
same,AUC(0-24),"[2]; daily 80 mg, Day 14",89779 ± 21751 ng·h/mL
same,AUC(0-infinity),"[2]; daily 80 mg, Day 14",206918 ± 62474 ng·h/mL
same,Cl/F (0-24),"[2]; daily 80 mg, Day 14",0.941 ± 0.247 L/h
same,Cl/F(0-infinity),"[2]; daily 80 mg, Day 14",0.422 ± 0.144 L/h
same,Cmax,"[2]; daily 80 mg, Day 14",4820.2 ± 930.3 ng/mL
same,Ke,"[2]; daily 80 mg, Day 14",0.0251 ± 0.0048 h⁻¹
same,MTT (0-24),"[2]; daily 80 mg, Day 14",11.0 ± 0.4 h
same,MTT(0-infinity),"[2]; daily 80 mg, Day 14",41.5 ± 7.8 h
same,T1/2,"[2]; daily 80 mg, Day 14",28.5 ± 5.8 h
same,Tmax,"[2]; daily 80 mg, Day 14",6.0 ± 1.1 h
same,time of peak plasma concentrations after administration,"[3]; oral, over the studies",6 to 11 h
same,minimum concentration during a 24-hour period relative to maximum concentration,[3]; regular once-daily administration (FIGS. 2 and 4),at least 66.7%
same,efficacy in collagen-induced arthritis,[4],effective
